We go through 17 compounds from ChEMBL document CHEMBL4402545, “Subtype Selective γ-Aminobutyric Acid Type A Receptor (GABAAR) Modulators Acting at the Benzodiazepine Binding Site: An Update” (J Med Chem, 2020).

Experiment [1] addresses T1, Gamma-aminobutyric acid receptor subunit alpha-1 (Homo sapiens, UniProt P14867).
T1 sequence (P14867 whole entry): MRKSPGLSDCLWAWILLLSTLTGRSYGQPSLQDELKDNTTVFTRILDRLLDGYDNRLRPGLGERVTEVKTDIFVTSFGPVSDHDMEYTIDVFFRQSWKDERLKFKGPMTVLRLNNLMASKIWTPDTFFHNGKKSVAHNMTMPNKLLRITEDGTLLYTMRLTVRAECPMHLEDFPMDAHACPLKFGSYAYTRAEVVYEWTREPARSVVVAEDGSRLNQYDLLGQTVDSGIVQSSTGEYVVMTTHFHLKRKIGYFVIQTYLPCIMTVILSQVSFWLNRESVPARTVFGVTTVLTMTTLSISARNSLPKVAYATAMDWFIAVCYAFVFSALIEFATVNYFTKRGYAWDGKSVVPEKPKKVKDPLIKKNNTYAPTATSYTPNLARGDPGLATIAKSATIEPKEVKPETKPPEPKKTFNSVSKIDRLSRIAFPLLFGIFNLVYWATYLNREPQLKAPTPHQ
Nature of the experiment: Binding affinity to GABA-A alpha1 (unknown origin).

Experiment [2] has as its target T2, Gamma-aminobutyric acid receptor subunit alpha-3 (Homo sapiens, UniProt P34903).
T2 sequence (P34903 whole entry): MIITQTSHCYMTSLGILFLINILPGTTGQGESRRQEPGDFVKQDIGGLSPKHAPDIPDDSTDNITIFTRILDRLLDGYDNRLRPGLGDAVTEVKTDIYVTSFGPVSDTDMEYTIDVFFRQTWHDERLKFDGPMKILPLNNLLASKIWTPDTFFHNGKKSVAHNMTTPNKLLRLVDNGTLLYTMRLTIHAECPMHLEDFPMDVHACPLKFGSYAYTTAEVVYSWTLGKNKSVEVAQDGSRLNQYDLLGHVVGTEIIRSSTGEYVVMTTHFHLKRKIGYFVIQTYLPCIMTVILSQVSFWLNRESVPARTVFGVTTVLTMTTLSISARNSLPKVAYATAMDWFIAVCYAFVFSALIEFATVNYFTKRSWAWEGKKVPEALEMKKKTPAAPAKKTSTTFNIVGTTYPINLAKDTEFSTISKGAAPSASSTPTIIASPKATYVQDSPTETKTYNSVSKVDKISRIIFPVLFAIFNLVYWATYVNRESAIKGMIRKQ
Briefly: Binding affinity to GABA-A alpha3 (unknown origin).

Experiment [3] is filed under the species Homo sapiens. Briefly: Selectivity ratio of Ki for binding affinity to GABAA alpha1beta3gamma2 (unknown origin) to Ki for binding affinity to GABAA alpha5beta3gamma2 (unknown origin).
Experiment [4] is filed under the species Homo sapiens. Briefly: Selectivity ratio of Ki for binding affinity to GABAA alpha3beta3gamma2 (unknown origin) to Ki for binding affinity to GABAA alpha5beta3gamma2 (unknown origin).
The species named for experiment [5] is Homo sapiens. Nature of the experiment: Selectivity ratio of Ki for binding affinity to GABAA alpha2beta3gamma2 (unknown origin) to Ki for binding affinity to GABAA alpha5beta3gamma2 (unknown origin).
Experiment [6] deals with T3, Gamma-aminobutyric acid receptor subunit alpha-2 (Homo sapiens, UniProt P47869).
T3 sequence (P47869 whole entry): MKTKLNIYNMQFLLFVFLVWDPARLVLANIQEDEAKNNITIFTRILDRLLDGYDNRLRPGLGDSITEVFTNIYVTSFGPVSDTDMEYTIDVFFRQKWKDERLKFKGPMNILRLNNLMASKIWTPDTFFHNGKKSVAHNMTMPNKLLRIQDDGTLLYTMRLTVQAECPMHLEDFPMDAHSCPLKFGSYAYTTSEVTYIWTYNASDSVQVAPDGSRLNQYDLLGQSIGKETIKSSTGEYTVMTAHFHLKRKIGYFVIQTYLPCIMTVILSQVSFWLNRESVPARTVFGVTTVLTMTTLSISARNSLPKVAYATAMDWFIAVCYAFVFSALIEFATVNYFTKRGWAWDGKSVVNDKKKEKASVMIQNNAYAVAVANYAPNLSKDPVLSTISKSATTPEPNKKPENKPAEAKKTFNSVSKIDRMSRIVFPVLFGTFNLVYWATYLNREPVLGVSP
Briefly: Binding affinity to GABA-A alpha2 (unknown origin).

The target in experiment [7] is T4, Gamma-aminobutyric acid receptor subunit alpha-5 (Homo sapiens) (UniProt P31644).
T4 sequence (whole entry): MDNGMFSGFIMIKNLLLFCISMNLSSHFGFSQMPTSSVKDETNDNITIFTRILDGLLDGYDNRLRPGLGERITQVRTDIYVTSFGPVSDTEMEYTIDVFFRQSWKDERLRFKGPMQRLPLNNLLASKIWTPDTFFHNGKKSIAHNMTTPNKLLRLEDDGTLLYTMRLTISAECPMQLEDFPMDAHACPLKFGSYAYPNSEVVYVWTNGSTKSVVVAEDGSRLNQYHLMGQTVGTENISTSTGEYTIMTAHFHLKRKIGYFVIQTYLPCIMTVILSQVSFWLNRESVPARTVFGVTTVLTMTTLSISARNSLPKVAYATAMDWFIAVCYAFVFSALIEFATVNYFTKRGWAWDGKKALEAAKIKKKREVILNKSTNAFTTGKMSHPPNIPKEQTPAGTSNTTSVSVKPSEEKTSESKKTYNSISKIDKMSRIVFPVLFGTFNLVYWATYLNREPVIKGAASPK
Nature of the experiment: Binding affinity to GABA-A alpha5 (unknown origin) assessed as reduction in DMCM induced current relative to control.

The target of experiment [8] is GABA-A receptor; alpha-5/beta-3/gamma-2 (Homo sapiens) (UniProt P18507+P28472+P31644). Nature of the experiment: Negative allosteric modulation of GABAA alpha5beta3gamma2 (unknown origin) expressed in Xenopus laevis oocytes assessed as inhibition of GABA-induced current response at -60 mV holding potential by two electrode voltage clamp method relative to control. Further details: scale not given: the % may be the effect or the level left. In kind it is cell-based.

For experiment [9], the target named is T5, Gamma-aminobutyric acid receptor subunit alpha-5 (Homo sapiens, UniProt P31644).
T5 sequence (P31644 whole entry): T4 sequence (whole entry)
Nature of the experiment: Binding affinity to GABA-A alpha5 (unknown origin).

Experiment [10] deals with T6, Gamma-aminobutyric acid receptor subunit alpha-3 (Homo sapiens) (UniProt P34903).
T6 sequence (whole entry): T2 sequence (P34903 whole entry)
Briefly: Binding affinity to GABA-A alpha3 (unknown origin) assessed as reduction in DMCM induced current relative to control.

For experiment [11], the target named is T7, Gamma-aminobutyric acid receptor subunit alpha-2 (Homo sapiens) (UniProt P47869).
T7 sequence (whole entry): T3 sequence (P47869 whole entry)
Briefly: Binding affinity to GABA-A alpha2 (unknown origin) assessed as reduction in DMCM induced current relative to control.

Experiment [12] deals with T8, Gamma-aminobutyric acid receptor subunit alpha-1 (Homo sapiens) (UniProt P14867).
T8 sequence (whole entry): T1 sequence (P14867 whole entry)
Nature of the experiment: Negative allosteric modulation of GABA-A alpha1 (unknown origin) assessed as reduction in DMCM induced current relative to control.

The target in experiment [13] is T8, Gamma-aminobutyric acid receptor subunit alpha-1 (Homo sapiens). Briefly: Binding affinity to GABA-A alpha1 (unknown origin) assessed as increase in induced current relative to control.
Experiment [14] addresses T7, Gamma-aminobutyric acid receptor subunit alpha-2 (Homo sapiens). Nature of the experiment: Binding affinity to GABA-A alpha2 (unknown origin) assessed as increase in induced current relative to control.
For experiment [15], the target named is T6, Gamma-aminobutyric acid receptor subunit alpha-3 (Homo sapiens). Nature of the experiment: Binding affinity to GABA-A alpha3 (unknown origin) assessed as increase in induced current relative to control.
The target of experiment [16] is T4, Gamma-aminobutyric acid receptor subunit alpha-5 (Homo sapiens). Nature of the experiment: Binding affinity to GABA-A alpha5 (unknown origin) assessed as increase in induced current relative to control.

For `CCOC(=O)c1ncn2c1[C@@H]1CCCN1C(=O)c1cc(OC)ccc1-2`, the Ki in experiment [1], in experiment [2] and in experiment [6] was 17 to 360 nM in each case. Also, the Ratio Ki in the experiment filed under Homo sapiens [3], in the experiment filed under Homo sapiens [4] and in the experiment listed under Homo sapiens [5] was 50 to 100 in each case.

For the compound `COCc1ncn2c1CN(C)C(=O)c1cc(Cl)ccc1-2`, the Efficacy was -20% in experiment [7], 45% in experiment [10], 15% in experiment [11] and 20% in experiment [12]. Moreover, the Activity in experiment [8] turned out to be 17%. Further, the Ki in [1] was found to be 362 nM; in [9], 6 nM; in experiment [2], 328 nM; in [6], 180 nM. Besides, the Ratio Ki in the experiment filed under Homo sapiens [3], in the experiment filed under Homo sapiens [4] and in the experiment listed under Homo sapiens [5] was 30 to 60 throughout.

As for `C#Cc1ccc2c(c1)C(c1ccccn1)=NCc1c(-c3cnco3)ncn1-2`, the fold change (FC) is 0.35 in [13], 0.66 in [14] and 0.77 in experiment [15].

For `c1ccc(-c2nnc3c4c(c(OCc5ccccn5)nn23)C2CCC4CC2)cc1`, the Ki in [1] is 71 nM; in experiment [2], 12 nM; in experiment [6], 26 nM.

Regarding `C#Cc1ccc2c(c1)C(c1ccccn1)=NCc1c(C(=O)OC)ncn1-2`, the Activity worked out at 25% in experiment [13], 11% in experiment [16], 140% in experiment [14] and 129% in [15]. Further, the Ki in experiment [2] and in experiment [6] was 1000 nM in each case.

Take `C#Cc1ccc2c(c1)C(=O)N(C)Cc1c(C(=O)OCC)ncn1-2`: the Activity in [8] came to 36%.

As for `C#Cc1ccc2c(c1)C(c1ccccc1F)=N[C@H](C)c1c(C(=O)NC)ncn1-2`, the Ki was determined as 850 nM in experiment [1], 55 nM in experiment [9], 660 nM in experiment [2] and 360 nM in experiment [6]. Also, the fold change (FC) in [13] was 0.11; in [16], 2.48; in experiment [14] it was 0.5; in [15], 0.2.

For the compound `Cc1onc(-c2ccc(F)cc2)c1COc1ccc(C(=O)N2CCS(=O)(=O)CC2)cn1` [BASMISANIL], the Efficacy in [7] was -39%; in [10], -2%; in experiment [11] it was -6%; in experiment [12] it was -4%. Besides, the Ki in experiment [1] was found to be 985 nM; in experiment [9] it was 4.7 nM; in [2] it was 489 nM; in [6], 502 nM.

As to `C#Cc1ccc2c(c1)C(c1ccccc1F)=N[C@H](C)c1c(C(=O)NC3CC3)ncn1-2`, the inhibition constant (Ki) was determined as 542 nM in experiment [1], 79 nM in experiment [9], 480 nM in experiment [2] and 789 nM in experiment [6]. Besides, the fold change (FC) in [13] was determined as 1.22; in [16], 1.23. Also, the Ratio Ki in the experiment filed under Homo sapiens [3], in the experiment filed under Homo sapiens [4] and in the experiment filed under Homo sapiens [5] was 6 to 15 throughout.

As to `C#Cc1ccc2c(c1)C(c1ccccc1F)=N[C@H](C)c1c(C(=O)N(C)C)ncn1-2`, the Ki came out at 55000 nM in [1], 5000 nM in experiment [9], 63000 nM in experiment [2] and 30000 nM in experiment [6]. Moreover, the fold change (FC) in [13] amounted to 0.65; in [16], 1.46. The Ratio Ki in the experiment listed under Homo sapiens [3], in the experiment filed under Homo sapiens [4] and in the experiment filed under Homo sapiens [5] was 6 to 15 in each case.

Regarding `C#Cc1ccc2c(c1)C(c1ccccc1F)=N[C@@H](C)c1c(C(=O)OCC)ncn1-2`, the fold change (FC) turned out to be 0.3 in experiment [13], 1.19 in experiment [16], 0.57 in experiment [14] and 0.31 in experiment [15].

Regarding `Clc1ccc2c(c1)-c1ncnn1Cc1c(Cl)ncn1-2`, the Efficacy was -40% in [7], -11% in experiment [10], -9% in experiment [11] and -3% in [12]. In addition, the Ki in experiment [1] was 15 nM; in [9], 2 nM; in experiment [2], 14 nM; in [6], 24 nM.

In the case of `C#Cc1ccc2c(c1)C(c1ccccn1)=NCc1c(C(=O)OCC)ncn1-2`, the fold change (FC) in [13] came out at 0.27; in [16], 0.23; in [14] it was 0.52; in experiment [15] it was 0.36.

Consider `C#Cc1ccc2c(c1)C(c1ccccc1F)=N[C@H](C)c1c(C(=O)OCC)ncn1-2`, for which the fold change (FC) in experiment [13] amounted to 0.25; in experiment [16], 1.19; in experiment [14], 0.19; in experiment [15] it was 0.18.

With `CC(C)(O)c1ccc2c(c1)ncn2-c1cccc(-c2cc(C#N)ccc2Cl)n1`, the fold change (FC) in experiment [13] was -0.1; in experiment [16], 0.05; in experiment [14], 0.27; in experiment [15], 0.47.

For the compound `CCCNC(=O)c1nnc2c(-c3cc(OC)ccc3OC)cccc2c1N` [AZD6280], the Ki in experiment [1] is 0.5 nM; in experiment [9], 1680 nM; in experiment [2] it was 3.1 nM.

With `FC(F)c1ncn2c1Cn1ncnc1-c1cc(Br)ccc1-2`, the Efficacy in [7] is -35%; in experiment [10], 2%; in experiment [11], -4%; in experiment [12] it was -3%. The Ki was 174 nM in [1], 4.6 nM in [9], 80 nM in [2] and 185 nM in [6].
